Several values for one entry are separate records, joined by “and”; a condition that tells them apart may be missing. Identical values can stand only once. Entries after “also recorded” stand apart in the source; their conditions may differ. Like-named read-outs stand apart in the source and are kept apart here.
Assays:
in vivo [1] = conditions: mouse, po
in vivo [2] = conditions: rat, ip
[3] = Tremor induced by AF102B, mice; format: in vivo; conditions: ip
From the text: (§1) rats; these effects are observed around the toxic doses of the compound

in vivo [4] = conditions: mouse, iv
[5] = Hypothermia-inducing activity in rats
[6] = rats, ip
[7] = Acute oral toxicity of AF102B in rats; format: in vivo, rats (Charles River CD strain)
Experimental: The test material was prepared at various concentrations in saline and was administered at a constant volume-sosage of 5 ml./kg. Dosages were selected according to the availability of the test material. Mortality and signs of reaction to treatment were recorded during a 14-day period. Early decedents and surviving animals were subjected to necropsy on Day 15.

Guinea-pig ileum [8] = test: Guinea-pig ileum induced contractions
From the text: Guinea-pig ileum induced contractions
*This dose is the IC50 for inhibiting acetylcholineinduced
contractions of the ileum.

[9] = Tremor induced by AF102B, rats; format: in vivo
From the text: as §1

[10] = target: central muscarinic receptors (M1) (Rattus norvegicus, UniProt P08482); test: biochemical; format: binding; parameters: IC50^1 :IC50^2: unit not given beside the values
Sequence of central muscarinic receptors (M1) (P08482 whole entry): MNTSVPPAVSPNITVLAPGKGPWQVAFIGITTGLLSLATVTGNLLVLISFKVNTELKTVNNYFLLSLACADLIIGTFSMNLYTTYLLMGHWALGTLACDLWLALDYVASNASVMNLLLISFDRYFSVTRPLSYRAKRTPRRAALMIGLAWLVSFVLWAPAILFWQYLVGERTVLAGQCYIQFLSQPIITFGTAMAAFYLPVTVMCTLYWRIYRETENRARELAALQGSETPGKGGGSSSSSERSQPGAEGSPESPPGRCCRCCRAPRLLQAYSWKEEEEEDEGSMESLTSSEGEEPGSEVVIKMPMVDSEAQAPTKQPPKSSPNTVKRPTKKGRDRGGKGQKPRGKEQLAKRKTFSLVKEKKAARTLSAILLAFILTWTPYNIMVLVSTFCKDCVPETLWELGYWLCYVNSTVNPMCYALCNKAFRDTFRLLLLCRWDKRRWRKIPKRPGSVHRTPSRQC

[11] = tested on: Salmonella typhimurium, strains TA-15365, TA-100, TA1538, TA-98 and TA-1537; test: Mutagenic activity (pour-plate assays)
Guinea-pig ileum [12] = test: Guinea-pig ileum induced contractions; conditions: ileum contraction
[13] = parameters: species or system Sprague Dawley rats; conditions: rat, in vivo, ip
[14] = target: central muscarinic receptors (M1 and M2); format: binding, rat
[15] = format: in vivo, mice; conditions: for dose level for antinociceptive activity: mouse, in vivo
[16] = mice
[17] = Acute toxicity in mice, ip; format: in vivo; conditions: 80 mg./kg.
[18] = parameters: species or system Male Sprague-Dawley rats; conditions: rat, in vivo
[19] = Morris Swimming Maze in AF64A- and CSF-injected rats; format: in vivo, male Sprague Dawley rats; conditions: ip
Experimental: 38 male Sprague Dawley rats (raised by Charles River) 5-6 months old with an average weight of 500 g. were used. The rats were housed in groups of 5 and were given free access to food and water. Testing was carried out in a round white metal tub 1.4 m. diameter and 0.4 m. deep. The tub was filled with water, made opaque by milk powder to the level of 18 cm. A platform of 12 cm. diameter and at a height of 16 cm. was placed in the tub 2 cm. below water level. The platform was covered with gauze to prevent the animal from slipping back into the water after reaching the platform.
Prior to testing, the rat was placed on the platform for 120 secs., placed gently into the water, facing the wall of the pool, at one of four starting locations (north, south, east or west) around the pool's perimeter. Within each block of four trials, each rat was started at each of the four starting locations, with the sequence of starting locations randomly selected. Testing was carried out on 2 consecutive days with each rat submitted daily to eight trials. During trials 1-12 the platform was located in the center of the south-east quadrant and during trials 13-16 the platform was transferred to the center of the north-west quadrant. If in a particular trial the rat found the platform, it was permitted to remain on it for 60 secs. before starting the next trial. […] The latency to find the platform was measured.
For drug testing, rats were injected with AF64A or CSF (3 nmole/2 ul/side) as described in Experiment 2, above. The rats were subjected first to a step-through learning procedure (see Experiment 1, above) and were 3-3.5 months after injection when tested in the water maze. The rats were divided into 4 groups; 18 CSF-injected rats were treated either with physostigmine (0.1 mg./kg. ip) (10 rats) or with saline (8 rats). 20 AF64A-injected rats were divided similarly. The rats were injected with physostigmine immediately before testing on each day.
Forty male Sprague-Dawley rats (obtained from Charles River Breeding Laboratories U.K.), 5-6 months old, weighing 450-580 g. during the experiment served as subjects. Rats were housed in groups of 5 and were given free access to food and water. 2.5-3.5 months before behavioral testing, rats were injected with AF64A (3 nmole/2 ul/side) (20 rats-group 1) or CSF (20 rats-group 2) as described in the surgery procedure.
Each of the injected groups was randomly subdivided into two equal size treatment groups.

[20] = tested on: acetyl- and butyryl-cholinesterase; test: Resistance to cholinesterases; format: in vitro ADME
[21] = oxotremorine 0.5 mg./kg., ip; cited from earlier work
[22] = mouse, icv; cited from earlier work
[23] = oxotremorine 0.5 mg./kg., ip; cited from earlier work; remark: listed apart in the source

Question: What does the source list for `C[C@H]1O[C@]2(CS1)CN1CCC2CC1` (relative stereo) [AF102B]?
Answer: LD50 (in vivo [1]): 92 mg/kg; LD50 at 336 h (in vivo [2]; LD50 (95% C.L.), rats): 77.6 mg/kg; LD50 at 336 h (in vivo [2]; LD50, rats): 77.6 mg/kg; tremor-inducing dose [3]: 60 to 80 mg/kg; LD50 (in vivo [4]): 33 mg/kg; cholinomimetic manifestation ([5]; AF102B at 80 mg./kg. p.o. and 60 mg./kg. i.p., oxotremorine 3.2 mg./kg. p.o. or 1.2 mg./kg. i.p.): Slight diarrhea was the single cholinomimetic manifestation; dose level for hypothermia inducing activity ([5]; i.p.): > 15 mg/kg; dose level for hypothermia inducing activity ([5]; p.o.): greater than 40 mg./kg.; principal signs of reaction to treatment [6]: spastic and tonic convulsions, tremors, tachypnoea and dyspnoea, decreased motor activity, slight to very strong salivation and urination; deaths ([6]; 20.0-187.0 mg./kg.): deaths occurred at the three highest dose levels (61, 107, 187 mg./kg.), within twenty minutes after dosing; slope ([6]; acute toxicity curve): 83 °; LD50 ([6]; 20160 min): 78 mg/kg; deaths ([7]; oral): deaths occurred at all four dose-levels studied, within three hours 30 minutes after dosing; necropsy observations ([7]; oral): a single case of haemorrhagic contents and occasional congested gastric mucosa was observed; also recorded: Necropsy of surviving animals did not reveal any abnormalities; principal signs of reaction to treatment ([7]; oral): clonic convulsions, tremor, salivation, urogenital staining, diarrhoea and pigmented orbital secretion; recovery and bodyweight of surviving animals ([7]; oral): all clinical signs of reaction to treatment were resolved by twenty four hours after dosing; also recorded: Surviving animals generally made expected bodyweight gains; LD50 at 336 h ([7]; rat, in vivo, po): > 156 mg/kg; muscarinic agonist activity (TABLES 1 and 2) (Guinea-pig ileum [8]; binding and ileum): potent muscarinic agonist; Type of activity (Guinea-pig ileum [8]; guinea-pig ileum): agonist; tremor-inducing dose ([9]; ip): > 78 mg/kg; tremor-inducing dose ([9]; po): > 100 mg/kg; EC50 [10]: 0.4 µM; IC50 [10]: 0.4 µM; IC50^1 :IC50^2 ([10]; PNZ:QNB displacement ratio): 0.04; inhibition of growth ([11]; 1000 ug. per plate): No inhibition of growth; mutagenic activity (reversion to prototrophy) ([11]; five strains, presence or absence of S-9 mix): No increases in reversion to prototrophy; also recorded: devoid of mutagenic activity; also recorded: not mutagenic up to high concentrations; EC50 (Guinea-pig ileum [12]): 4 µM; effect in 8-Arm Radial Maze [13]: counteracted; also recorded: reverses memory impairments in AF64A-treated rats; also recorded: improves AF64A-induced memory impairments; also recorded: significant (p<0.001, F=17.5) decrease in the mean number of errors; also recorded: improved performance only when rats were previously injected icv with AF64A; also recorded: memory impairment could be reversed; effective dose, 8-Arm Radial Maze [13]: 5 mg/kg; IC50 ([14]; read-out: IC50^2 for displacement of [^3 H]-QNB): 10 µM; EC50 ([14]; summary table, read-out: EC50, [^3 H]--QNB-binding): 10 µM; antinociceptive effect at highest non-lethal doses ([15]; mice, 60 mg./kg. p.o. and 40 mg./kg. i.p., vs codeine phosphate and oxotremorine): not fully developed at 60 mg./kg. p.o. and 40 mg./kg. i.p; also recorded: remained obviously weaker than those of codeine phosphate and oxotremorine; dose level for antinociceptive activity ([15]; ip): > 10 mg/kg; dose level for antinociceptive activity ([15]; po): greater than 20 mg./kg.; onset of action following per os administration ([15]; po, analgesia, hypothermia and lethal dose level tests): 10 to 15 min; Mortality ([16]; 31 mg./kg. i.v.): 3/6; Mortality ([16]; 33 mg./kg. i.v.): 1/6; Mortality ([16]; 35 mg./kg. i.v.): 5/6; Mortality ([16]; 37 mg./kg. i.v.): 6/6; Mortality ([16]; 39 mg./kg. i.v.): 6/6; LD50 (95% C.I.) ([16]; intravenous): 33(31-35) mg./kg.; death of mice [17]: All mice died; Mortality (mice, 64 mg./kg. per os): 0/5; Mortality (mice, 71 mg./kg. per os): 0/5; Mortality (mice, 80 mg./kg. per os): 2/5; Mortality (mice, 90 mg./kg. per os): 2/5; Mortality (mice, 101 mg./kg. per os): 3/5; Mortality (mice, 113 mg./kg. per os): 4/5; absorption by the enteric route (mice, inferred from i.v./oral LD50 ratio): efficient, rapid and apparently unaltered absorption; LD50 (95% C.I.) (mice, oral): 92(74-116) mg./kg.; Signs in reaction to treatment (mouse, in vivo): slightly enhanced intensity; effects considered characteristic of parasympatho- or cholinomimetic activity (mouse, in vivo): none of the test animals exhibited effects considered characteristic of parasympatho- or cholinomimetic activity; duration of action [18]: very long beneficial effect; also recorded: long duration of action; retention latency during extinction+latent extinction [18]: No significant differences; reversal of AF64A-induced memory impairments in passive avoidance [18]: could be reversed; also recorded: reverses memory impairments in AF64A-treated rats; Initial latency ([18]; ip): 16.71 ± 4.77 s and 11.86 ± 1.23 s and 19.71 ± 5.39 s; Initial-test latency ([18]; ip): 18.40 ± 3.74 s and 15.30 ± 2.83 s; Retention-test latency ([18]; ip): 330.57 ± 75.55 s and 348.14 s and 551.71 s and 514.10 ± 38.21 s and 447.60 ± 58.09 s; retention latency during extinction ([18]; ip): significantly longer, F(1,36)=31.45, p<0.01; also recorded: significantly improved; also recorded: increased from the first to the fourth trial and then decreased; retention-test differences between doses ([18]; ip): no significant differences were found during the 24 hr. retention-test between the different doses of AF102B; Retention-test latency ([18]; po): 524.55 ± 45.60 s and 600 s; retention of passive avoidance (statistics) ([18]; po): significantly longer [F(1,35)=28.46; p<0.001]; also recorded: significantly improved; also recorded: no significant difference between the AF102B-treated-CSF-injected group and the saline-treated-CSF-injected group; also recorded: significantly longer [F(1,18)=65.71; p<0.001]; also recorded: that of the CSF-injected group did not significantly change; effect in Morris Swimming Maze ([19]; AF102B 1 mg./kg., physostigmine 0.1 mg./kg.): counteracted; also recorded: reverses memory impairments in AF64A-treated rats; also recorded: definitely improved the memory deficits induced by AF64A; also recorded: significant decrease in escape latency; effective dose, Morris Swimming Maze ([19]; AF64A rats): 1 mg/kg

Question: Which “pharmacological activity (muscarinic)” value [10] does the source give for `CC1OC2(CS1)CN1CCC2CC1` (stereo not drawn) [(Ia), 2-methylspiro(1,3-oxathiolan-5,3')quinuclidine] here?
Answer: muscarinic agonist with a high specificity for the central nervous system

Question: And the “destruction by acetyl- and butyryl-cholinesterase” value [20]?
Answer: not destroyed

Question: What does the source list for `CN1CCN(CC(=O)N2c3ccccc3C(=O)Nc3cccnc32)CC1` [PNZ, pirenzepine]?
Answer: dose required to reduce the effect of oxotremorine by 50%, tremor [21]: 5.8 ug/mouse, icv; minimum effective dose producing impaired passive avoidance learning [22]: 0.1 ug/mouse, icv; dose required to reduce the effect of oxotremorine by 50%, antinociception [23]: 4.6 ug/mouse, icv

Reference: US4855290A (priority 1985, dated 1989)
